This is an account of results in patent US20200397718A1, “USE OF HYDROXYTYROSOL ACETATE IN IMPROVING FUNCTION OF AORTIC ENDOTHELIAL CELL” (XI'AN JIAOTONG UNIVERSITY, priority 2019, published 2020).

The subject of data set [1] is IL-6, MMP-1, ICAM-1 and PAI-1 mRNA in human aortic endothelial cells. Kind of data set: mRNA levels of IL-6, MMP-1, ICAM-1 and PAI-1 (RT-PCR) in palmitic acid-induced inflammation of HAECs. In kind it is cell-based. The procedure: (§1) Human aortic endothelial cells (HAECs) were purchased from Shanghai Shanghai Bioleaf Biotech Co., Ltd. Palmitic acid (PA) was purchased from SIGMA Company. A palmitic acid solution having a concentration of 500 μM was prepared by dissolving palmitic acid in water. A cell culture incubator was adopted to culture the cells in a temperature-constant, humidified, sterile condition. The cells were cultured in wells of culture plates at an atmosphere of 95% air and 5% CO2 at 37° C. in the incubator. The experiments were performed on different experimental groups of cells. The experiments were performed on three experimental groups of cells: (1) control group; (2) 500 μM palmitic acid treatment group; and (3) hydroxytyrosol acetate protection group.
(§2) The HAECs that were previously cultured in a 12-well cell culture plate were divided into 5 different experimental groups and respectively applied with hydroxytyrosol acetate in respective concentrations, 0 μM, 0 μM, 10 μM, 50 μM, and 100 μM, all followed with an 24-hour incubation. Then, the last 4 groups of cells were respectively applied with 500 μM palmitic acid, the first was not, all followed with another 24-hour incubation. The detecting of mRNA levels corresponding to interleukin-6 (IL-6), matrix metalloproteinase-1 (MMP-1), intercellular adhesion molecule-1 (ICAM-1) and plasma plasminogen activator inhibitor-1 (PAI-1) were respectively carried out on each group of cells by using reverse transcription RNA and real-time quantitative polymerase chain reaction (PCR), and the specific method is as follows:
The medium for cell culture in the wells was removed. 500 μL of TRIzol™ reagent was added to each well, and the culture plate was then shaken at room temperature for 5 minutes. Then the cells in the wells were collected and transferred to a 1.5 mL Eppendorf® (EP) tube. 200 μl (taking ⅕ of total volume of the substance in the EP tube) of chloroform was then added to the EP tube for extraction of protein. […] The concentration of the solution was measured by an ultraviolet spectrophotometer. […]

The test system of data set [2] is interleukin-6 (IL-6) mRNA. Kind of data set: mRNA level corresponding to IL-6 (RT-PCR) in HAECs. As to conditions: 500 μM palmitic acid, 24 h. In kind it is cell-based, human. The method, then:
(§3) Human aortic endothelial cells (HAECs) were purchased from Shanghai Shanghai Bioleaf Biotech Co., Ltd. Palmitic acid (PA) was purchased from SIGMA Company. A palmitic acid solution having a concentration of 500 μM was prepared by dissolving palmitic acid in water. A cell culture incubator was adopted to culture the cells in a temperature-constant, humidified, sterile condition. The cells were cultured in wells of culture plates at an atmosphere of 95% air and 5% CO2 at 37° C. in the incubator. The experiments were performed on different experimental groups of cells. […]
as §2, with “Then, the last 4 groups of cells were respectively applied with 500 μM palmitic acid, the first was not, all followed with another 24-hour incubation.” left out
(§4) The medium for cell culture in the wells was removed. […] The concentration of the solution was measured by an ultraviolet spectrophotometer. […]

For data set [3], the system named is matrix metalloproteinase-1 (MMP-1) mRNA. The data set is described as follows: mRNA level corresponding to MMP-1 (RT-PCR) in HAECs. The data set is classed as cell-based, human. The following applies: 500 μM palmitic acid, 24 h. The method, then:
as §3
as §2, with “Then, the last 4 groups of cells were respectively applied with 500 μM palmitic acid, the first was not, all followed with another 24-hour incubation.” left out
as §4

The subject of data set [4] is reactive oxygen species in human aortic endothelial cells. Kind of data set: Detection of reactive oxygen species (H2DCF-DA) in HAECs. In kind it is cell-based. The procedure:
as §1
The cultured HAECs were divided into 3 different experimental groups, the control (Ctrl) group, the PA group, and the hydroxytyrosol acetate+PA (HTac+PA) group. The cells of the HTac+PA group were applied with hydroxytyrosol acetate in a concentration of 100 μM followed with a 24-hour incubation. Then, the cells of both the PA group and the HTac+PA group were applied with 500 μM palmitic acid, all followed with another 24-hour incubation.
After treating the cells with hydroxytyrosol acetate and palmitic acid, and discarding the medium, the cells were rinsed once with PBS. […] The supernatant was collected and measured by a microplate reader.

Data set [5] concerns mitochondrial membrane fusion-related proteins Mfn1, Mfn2. Kind of data set: Western blot of mitochondrial membrane fusion-related proteins in HAECs. In kind it is cell-based, human. The procedure: as §1, with “group. […]” for “group.”
The medium for cell culture in the wells was removed. […] The supernatants were collected, and the proteins therein were quantified by bicinchoninic acid (BCA) assay, and normalized. […]
10 μg of the extracted proteins were subjected to gel electrophoresis with 10% acrylamide gel, and electrophoretic transferred onto a PVDF membrane, which were blocked, and incubated with a primary antibody at 4° C. overnight, free primary antibody was washed away. […] Target proteins were detected by chemiluminescence.

In data set [6] the test system is human aortic endothelial cells (HAECs). The data set is described as follows: MTT assay, relative cell viability of human aortic endothelial cells. The data set is classed as cell-based. The method, then:
as §1
The HAECs that were previously cultured in a 12-well cell culture plate were divided into 4 different experimental groups and respectively applied with hydroxytyrosol acetate in different concentrations, 0 μM, 10 μM, 50 μM, and 100 μM, all followed with an 24-hour incubation. […]
An MTT assay was performed to all groups of cells. […] The absorbance was measured at a wavelength of 490 nm in a spectrophotometer. The absorbance of this colored solution can be quantified by measuring at a certain wavelength (usually between 500 and 600 nm) by a spectrophotometer.

Setting [7] is: 100 μM, 24 h pre-treatment, then 500 μM palmitic acid 24 h.

In the case of `CCCCCCCCCCCCCCCC(=O)O` [palmitic acid, reference compound], the “inflammatory cytokines IL-6, MMP-1, ICAM-1 and PAI-1 versus control group” value in data set [1] (500 μM palmitic acid, 24 h) is given as “significantly higher”. Besides, the “increase of mRNA level corresponding to IL-6 versus control” value in data set [2] was “about 20 times”. The “increase of mRNA level corresponding to MMP-1 versus control” value in data set [3] is listed as “about 10 times”. In data set [4] (500 μM palmitic acid, 24 h), the “production of reactive oxygen species ROS” value is recorded as “a large amount”. Further, the “expression of mitochondrial membrane fusion-related proteins Mfn1, Mfn2” value in data set [5] (500 μM palmitic acid, 24 h) is listed as “reducing”.

Regarding hydroxytyrosol acetate, in data set [6] (100 μM hydroxytyrosol acetate, 24 h), the “proliferation of human aortic endothelial cells” value is reported as “promoted”. The “toxic and side effects on human aortic endothelial cells” value in data set [6] (HAECs, 0-100 μM, FIG. 1) was “no toxic and side effects”. In addition, in data set [1] (50 μM, 24 h pre-treatment, then 500 μM palmitic acid 24 h), the “inhibition of the palmitic acid-induced inflammatory response (mRNA IL-6, MMP-1, ICAM-1, PAI-1)” value is listed as “significant inhibition”. Besides, the “inhibitory effect on the palmitic acid-induced inflammatory response (mRNA IL-6, MMP-1, ICAM-1, PAI-1)” value in data set [1] (100 μM, 24 h pre-treatment, then 500 μM palmitic acid 24 h, compared with 50 μM) is listed as “more obvious”. Moreover, the “production of excessive reactive oxygen species induced by palmitic acid” value in data set [4] (setting [7]) is listed as “significantly inhibit”. The “expression of Mfn2” value in data set [5] (setting [7]) is “significantly increasing”.
